Reference: publication PMC8414802, “Hair Cell Generation in Cochlear Culture Models Mediated by Novel γ-Secretase Inhibitors” (Frontiers in Cell and Developmental Biology, 2021)
“And” between values parts separate entries of the source, which are not always exact repeats. Equal values may be shown once.

What was measured:
[1] = Inner ear pharmacokinetics after transtympanic administration (perilymph, plasma; LC-MS/MS); format: in vivo, guinea pig
Protocol: Female albino Hartley guinea pigs, 250 g, from Charles River (France), housed in macrolon cages (2/cage; Innocage Rat Static-Innovive, Paris) with filter air, were maintained at 22 ± 2°C on a 12-h light cycle with standard A04C (UAR) diet and water “ad libitum.” Lgr5-GFP mice containing an EGFP-IRES-CreERT2 knock-in allele at the Lgr5 locus were obtained from the Jackson Labs (Stock 008875, C57BL/6J/RccHsd background). Atoh1-nGFP transgenic mice (C57Bl/6J background) were from Jane Johnson ([Lumpkin et al., 2003]). Wistar rats were obtained from Charles River.
γ-secretase inhibitors pharmacokinetic studies tested CPD3, CPD8 (Eli Lilly) or LY411575 (Stemcell Technologies) each formulated at 3.4 mg/ml in the following vehicles, 10% Poloxamer 338 (Sigma), 20% Poloxamer 338, 70% PEG400 (Sigma) or 1% hyaluronic acid (HA-700; Lifecore, Chaska, MN, United States) all prepared with PBS (pH 6.2). A single 70 μl injection of the formulated compound (total dose, 870 μg/kg) was delivered to the middle ear space of isoflurane-anesthetized guinea pigs by transtympanic administration. Perilymph from treated animals (perilymph volumes, >2 μl) was collected at time points up to 48 h post-administration (CILcare, Montpellier, France). Briefly, concentrations of each compound in perilymph and plasma, as well as controls prepared in artificial perilymph, were measured by LC-MS/MS on an AB Sciex, API 4000 mass spectrometer using an Onyx C18 5 μm 50^∗2.0 mm separation column (Oroxcell, Romainville, France).
To verify this, in vivo compound concentrations were measured in perilymph of guinea pigs after intratympanic delivery of GSIs into the middle ear. Initially, four vehicle formulations, with different physical properties, were tested, poloxamer 338 (POX; at 10% or 20%), hyaluronic acid (HA), or polyethylene glycol 400 (PEG). For this comparison only one GSI was prepared in each formulation (CPD3, 3.4 mg/ml) and a single dose was injected into the middle ear. Perilymph and plasma were sampled for 48 h (Figure 1D). […] Next, using only 10% POX as vehicle, inner ear adsorption was compared between CPD3, CPD8, and LY411575 by transtympanic injections (Figure 1D, inset). […] Each compound achieved levels several folds above their respective IC50s. The mean maximal perilymph concentration of CPD3 at 0.5 h post-dosing was 85,489 ng/ml (183 μM), then declined at 1 h to 12,928 ng/ml (27.7 μM), and at 6 h to 12,652 ng/ml (27.1 μM). GSIs in plasma samples were not detected (data not shown).

[2] = system: Atoh1-GFP positive hair cells and Sox2+ supporting cells in whole cochlea; assay: Ex vivo whole cochlea culture, drug applied at the round window niche; format: cell-based, mouse
Protocol: To culture the intact cochlea of P0–P1 mice, the entire otic capsule (cochlea and semicircular canals) was carefully dissected. Connective tissues and nerves were removed to clear the round window niche and the capsule was positioned with the round window facing up in a sterile 35 mm dish. A surgical sponge was employed to blot dry the interior of the round window niche, which was then filled with 2 μl of the formulated drug and applied with a small pipette tip. Following 2 h of drug treatment at 37°C with 5% CO2, the tissue was transferred to a 50 ml conical tube containing 10 ml medium (DMEM, 5%FBS, 5% horse serum and ampicillin) and the tube was sparged with 95% O2/5% CO2 for 5–10 min and incubated for 2 days at 37°C, rotating on a roller/rocker (SCILOGEX MX-T6-S Analog Tube Roller) at 15–17 rpm.
For whole-mount immunohistochemistry, whole cochleae were fixed (4% PFA) ON at 4°C, then incubated in primary antibodies (72 h, rocking at 4°C), goat anti-GFP polyclonal Ab (AbCam, ab6673) and rabbit anti-Sox2 polyclonal IgG (GenTex, GTX101506) in 4% normal donkey serum. Following extended washes (over 24 h), cochlea were incubated for 24 h in secondary antibodies donkey anti-goat Alexa 488 (Thermo Fisher, A11055) and donkey anti-rabbit Alexa 647 (Thermo Fisher, A31573) and extensively washed. The intact OC were then microdissected from cochleae and mounted on a coverslip for confocal imaging. A LSM 510 Confocal Microscope (Zeiss) utilizing 63X Zeiss Plan-APOCHROMAT DIC oil, 1.4NA and Zen 2009 LSM imaging software was used to optically scan mid-apex regions of OCs. Cellular quantification and image analysis computation were performed with Imaris 8.2.1 software (Bitplane).
To assess the permeability of the compounds across the round window membrane, a novel ex vivo model was devised to compare drug entry, after delivery to the exterior of the cochlear capsule, to resemble middle ear application. Specifically, CPD3 application was tested in organotypic culture of the entire otic capsule (Figure 4). CPD3, formulated at two different concentrations (1 and 7.2 mM) in 70% PEG400 or 10% POX338 (POX), was applied at the round window niche. Drug formulations were allowed to absorb briefly into the cochlea prior to the 48 h culture. […] For the POX338 formulation, we further characterized the number of Sox2+ supporting cells in the sensory epithelium. […] Also in this model, we observed a trend for new hair cells to be greater toward the apex than the base in agreement with the results obtained with the OC organotypic culture and indicated GSI exposure was throughout the entire length of the organ of Corti length during the culture period.
FIGURE 4 Hair cell quantification in whole cochlea culture. (A) Hair cell counts from whole cochea culture with directly applied CPD3 in 70% PEG400 (1 mM or 7.2 mM). Atoh1-GFP positive hair cells in different organ of Corti regions (B, base; MB, mid-base; MA, mid-apex; A, apex) (n = 3 independent experiments). (B) Hair cell counts from whole cochea culture with directly applied CPD3 in 10% POX338 (1 mM;, or 7.2 mM). Atoh1-GFP positive hair cells in different organ of Corti regions (B, base; MB, mid-base; MA, mid-apex; A, apex; n = 3 independent experiments). (C) Immunostained inner ear sensory epithelia following whole cochlea culture with direct application of CPD3 (1 and 7.2 mM; Vehicle, 10% POX338). 3D projections of confocal stacks at mid-base region of organ of Corti, Atoh1-GFP (hair cells, green) and Sox2 (supporting cells, red). (D) Quantification of Atoh1-GFP-positive (green dots) and Sox2-positive cells (red dots) after direct application of CPD3 (1 or 7.2 mM), or vehicle formulated in 10% POX338. (*p < 0.05; ***p < 0.001, one-way ANOVA with multiple comparison; n = 12; 3 independent experiments; all regions-base to apex).

[3] = female, Hartley, guinea pig, perilymph, other: transtympanic (middle ear injection), 870 μg/kg, 10% POX vehicle, transtympanic

Time at which mean maximal perilymph concentration was reached ([1]; 10% POX and 20% POX formulations, post-dosing): 0.5 h | Mean maximal perilymph concentration at 0.5 h post-dosing ([1]; 10% POX vehicle, transtympanic): 85,489 ng/ml and 183 μM | Perilymph concentrations quantifiable ([1]; 10% POX, sampled at 0.5, 1 and 6 h post-dosing): quantifiable at all time points | concentration at 1 h [1, 3]: 12900 ng/mL and 27.7 µM | concentration at 6 h [1, 3]: 12700 ng/mL and 27.1 µM
SMILES: COc1ccc2c(c1)N1CCC(C)(C)C1=CC(=O)[C@H]2NC(=O)[C@H](C)NC(=O)CCC(F)(F)F [CPD3]
concentration at 48 h ([1]; female, Hartley, guinea pig, perilymph, other: transtympanic (middle ear injection), 870 μg/kg, single transtympanic dose 3.4 mg/ml, 70 μl, span over the vehicle formulations (10% POX, 20% POX, HA, PEG400)): 485 ng/mL to 1000 ng/mL and 1 µM to 2.1 µM | Increase in Atoh1+ hair cells above vehicle-only ([2]; 1 mM in 10% POX338): 23.3% | Atoh1+ hair cells ([2]; 1 mM in 10% POX338, 48 h culture): 72 ± 11 hair cells/100 μm | Change in Atoh1+ hair cells above vehicle-only ([2]; 1 mM in 70% PEG400): no change | Atoh1+ hair cells ([2]; 1 mM in 70% PEG400, 48 h culture): 54 ± 7 hair cells/100 μm | Increase in Atoh1+ hair cells above vehicle-only ([2]; 7.2 mM in 10% POX338): 54.4% | Atoh1+ hair cells ([2]; 7.2 mM in 10% POX338, 48 h culture): 90 ± 20 hair cells/100 μm | Increase in Atoh1+ hair cells above vehicle-only ([2]; 7.2 mM in 70% PEG400): 60.1% | Atoh1+ hair cells ([2]; 7.2 mM in 70% PEG400, 48 h culture): 87 ± 15 hair cells/100 μm | Supporting cell (Sox2+) counts ([2]; 10% POX338 formulation, p < 0.001): significant decrease
